Data from patent publication US5061711A, “Method of curing liver diseases by using pyrrolo quinoline quinone triesters and novel pyrrolo quinoline quinone triesters” (Mitsubishi Gas Chemical Company, Inc., priority 1989, dated 1991).

Assays:
[1] = bovine, not told, 960 min
[2] = system: carbon tetrachloride (CCl4)-induced liver diseases; test: Pharmacological activity (1) on carbon tetrachloride (CCl4)-induced liver diseases; type: in vivo, SD rats; settings: i.p. 5 mg/kg rat twice, CCl4 1 ml/kg rat, 24 hours, average of five rats; for Total bilirubin in serum: CCl4 alone 1.2; for GPT in serum: CCl4 alone 818; for GOT in serum: CCl4 alone 3308
Method: Pharmacological activity (1) of PQQ triesters on carbon tetrachloride (CCl4)-induced liver diseases:
Twenty SD rats (male, 7 weeks old, body weight: about 220 g; supplied by Japan Charles River Co.) were divided to four groups (A-D) each consisting of five rats. All rats were fasted for 16 hours and 1.1 ml of a solution containing 1 mg/ml of PQQ trimethyl ester was intraperitoneally administered to the rats of group C and 1.1 ml of a solution containing 1 mg/ml of PQQ triallyl ester was intraperitoneally administered to the rats of group D and after lapse of 40 minutes, the same PQQ triesters in the same dose as above was intraperitoneally administered, respectively. For administration, the PQQ triesters were suspended in physiological saline containing 1 % Tween 80, 1.1 ml of physiological saline was intraperitoneally administered to the rats of group B in place of PQQ triesters. Furthermore, after 20 minutes, 2.2 ml of 10 vol% carbon tetrachloride (solution in olive oil) was administered to stomach of the rats of groups B-D. Neither PQQ triesters nor carbon tetrachloride were administered to the rats of group A.
After 24 hours from administration of carbon tetrachloride, blood was collected from abdominal main artery and serum was obtained by centrifugation therefrom.
GPT, GOT and amount of total bilirubin in the serum were measured by clinical examination reagent (trademark: FUJI DRYCHEMSLIDE manufactured by Fuji Photo Film Co., Ltd.). The results are shown in Table 5 by average value of five rats.

[3] = system: D-galactosamine-induced liver diseases; test: Pharmacological effect (1) on D-galactosamine-induced liver diseases; type: in vivo, SD rats; settings: D-galactosamine 1 g/kg rat s.c., 23 hours, average of five rats; for Total bilirubin in serum: D-galactosamine alone 1.0; for GPT in serum: D-galactosamine alone 552; for GOT in serum: D-galactosamine alone 1067
Method: Pharmacological effect (1) of PQQ triesters on D-galactosamine-induced liver diseases;
Forty SD rats (male 7 weeks old, body weight: about 240 g; supplied by Japan Charles River Co.) were divided to eight groups (A-H) each consisting of five rats. All rats were fasted for 16 hours and 1.2 ml of a solution containing 0.4 mg/ml of PQQ trimethyl ester was intraperitoneally administered to the rats of group C, 1.2 ml of a solution containing 1.0 mg/ml of PQQ trimethyl ester was intraperitoneally administered to the rats of group D, 1.2 ml of a solution containing 2.0 mg/ml of PQQ trimethyl ester was intraperitoneally administered to the rats of group E, 1.2 ml of a solution containing 0.4 mg/ml of PQQ triallyl ester was intraperitoneally administered to the rats of group F, 1.2 ml of a solution containing 1.0 mg/ml of PQQ triallyl ester was intraperitoneally administered to the rats of group G, and 1.2 ml of a solution containing 2.0 mg/ml of PQQ triallyl ester was intraperitoneally administered to the rats of group H and furthermore, after 40 minutes, the same PQQ triesters in the same doses as above were intraperitoneally administered to respective rats. In these cases, the PQQ triesters were suspended in physiological saline containing 1% Tween 80 and administered to the rats. 1.2 ml of physiological saline was intraperitoneally administered to the rats of group B in place of PQQ triesters. Furthermore, after 20 minutes, 1.2 ml of a solution of 2 g of D-galactosamine in 10 ml of physiological saline was subcutaneously injected to the rats of groups B-H. Neither PQQ triesters nor D-galactosamine were administered to the rats of group A.
After 23 hours from administration of D-galactosamine, blood was collected from abdominal main artery and serum was obtained by centrifugation therefrom.
GPT, GOT and amount of total bilirubin in the serum were measured by clinical examination reagent (trademark: FUJI DRYCHEMSLIDE manufactured by Fuji Photo Film Co., Ltd.). The results are shown in Table 7 by average value of five rats.

male mice SPF-ICR = test: Acute toxicity test; settings: mouse, in vivo
Method: To male mice SPF-ICR five weeks old (supplied by Japan Charles River Co.) were intraperitoneally administered PQQ.2Na, PQQ trimethyl ester and PQQ triallyl ester at dosages of 40, 80, 160 and 200 mg per kg of body weight of mouse, respectively and they were bred for 14 days at 25° C. One group consisted of 8 mice. For administration, PQQ.2Na was dissolved in physiological saline and PQQ trimethyl ester and PQQ triallyl ester were suspended in 1%Tween 80-containing physiological saline, respectively.

| Structure (SMILES) | Membrane permeation constant [1] | membrane permeation constant relative to that of PQQ.2Na [1] | Total bilirubin in serum [2] [mg/dL] | GPT in serum [2] [U/l] | GOT in serum [2] [U/l] | Total bilirubin in serum ([3]; i.p. 2 mg/kg rat twice) [mg/dL] | GPT in serum ([3]; i.p. 2 mg/kg rat twice) [U/l] | GOT in serum ([3]; i.p. 2 mg/kg rat twice) [U/l] | Total bilirubin in serum ([3]; i.p. 5 mg/kg rat twice) [mg/dL] | GPT in serum ([3]; i.p. 5 mg/kg rat twice) [U/l] | GOT in serum ([3]; i.p. 5 mg/kg rat twice) [U/l] | Total bilirubin in serum ([3]; i.p. 10 mg/kg rat twice) [mg/dL] | GPT in serum ([3]; i.p. 10 mg/kg rat twice) [U/l] | GOT in serum ([3]; i.p. 10 mg/kg rat twice) [U/l] | mice died (male mice SPF-ICR) |
| --- | --- | --- | --- | --- | --- | --- | --- | --- | --- | --- | --- | --- | --- | --- | --- |
| COC(=O)c1cc(C(=O)OC)c2c(n1)C(=O)C(=O)c1cc(C(=O)OC)[nH]c1-2 [PQQ trimethyl ester] | 1.41 ± 0.48 10^-7 cm^2 · sec^-1 | about 2 times | 0.7 | 505 | 2193 | 0.9 | 447 | 970 | 0.5 | 182 | 544 | 0.7 | 388 | 833 | no mice died |
| C=CCOC(=O)c1cc(C(=O)OCC=C)c2c(n1)C(=O)C(=O)c1cc(C(=O)OCC=C)[nH]c1-2 [PQQ triallyl ester] | 2.42 ± 0.60 10^-7 cm^2 · sec^-1 | 3-4 times | 0.8 | 371 | 2150 | 0.8 | 538 | 1132 | 0.8 | 322 | 648 | 0.6 | 120 | 480 | no mice died |
